Measured values published in US11884683B2, “Tricyclic heterocycle compounds useful as HIV integrase inhibitors” (Merck Sharp & Dohme LLC, priority 2018, dated 2024).
Read-outs that look alike come from different tables or passages of the source.

Test system: HIV-1 (H9/IIIB strain)
Experiment: Multiple round HIV-1 infection assay in MT4-GFP cells (wild type cell assay, Viking)
Format: cell-based
Settings: 0% NHS condition, MT4-GFP cells infected with HIV-1 H9/IIIB, inhibition of reproductive ratio R0, ~48 h and ~72 h post-infection, read-out: WILD TYPE CELL ASSAY Viking IP (0% NHS)
Description: Assessing Antiviral Potency in a Multiple Round HIV-1 Infection Assay
The antiviral activity of the Examples herein was assessed in an assay that measures the rate of replication of HIV in cell culture, and performed according to the following procedure. HIV-1 replication was monitored using MT4-gag-GFP clone D3 (hereafter designated MT4-GFP), which are MT-4 cells modified to harbor a GFP reporter gene, the expression of which is dependent on the HIV-1 expressed proteins tat and rev. Productive infection of an MT4-GFP cell with HIV-1 results in GFP expression approximately 24 h post-infection. MT4-GFP cells were maintained at 37° C./5% CO2/90% relative humidity in RPMI 1640 supplemented with 10% fetal bovine serum, 100 U/ml penicillin/streptomycin, and 400 μg/ml G418 to maintain the reporter gene. For infections, MT4-GFP cells were placed in the same medium lacking G418 and infected overnight with HIV-1 (H9/IIIB strain) virus at an approximate multiplicity of infection of 0.01 in the same incubation conditions. Cells were then washed and re-suspended in either RPMI 1640 at 2×10^5 cells/mL (0% NHS condition) or 100% normal human serum (NHS) at 2×10^5 cells/mL (100% NHS condition). Compound plates were prepared by dispensing compounds dissolved in DMSO into wells of 384 well poly-D-lysine-coated plates (0.2 μl/well) using an ECHO acoustic dispenser. Each compound was tested in a 10-point serial 3-fold dilution (typical final concentrations: 1050 nM-0.05 nM for 0% NHS condition or […]-2.13 nM for 100% NHS condition). Controls included no inhibitor (DMSO only) and a combination of three antiviral agents (efavirenz, indinavir, an in-house integrase strand transfer inhibitor at final concentrations of […] each). Cells were added ([…]) to compound plates and the infected cells were maintained at 37° C./5% CO2/90% relative humidity.
Infected cells were quantified at two time points, ˜48 h and ˜72 h post-infection, by counting the number of green cells in each well using an Acumen eX3 scanner. The increase in the number of green cells over ˜24 h period gives the reproductive ratio, RO, which is typically 5-15 and has been shown experimentally to be in logarithmic phase (data not shown). Inhibition of R0 is calculated for each well, and IC50s determined by non-linear 4-parameter curve fitting.

[1] = Human immunodeficiency virus 1, IIIB

Row | SMILES | IC50 | IC50 [1]
1 | CCN1CN2CC(O)c3c(C(=O)NCc4ccc(F)cc4F)c(=O)c(O)c(n32)C1=O (stereo not drawn) [Compound 58] | 4 nM | –
2 | CCC1N(C)C(=O)c2c(O)c(=O)c(C(=O)NCc3c(F)cc(F)cc3F)c3n2N1CC3O (stereo not drawn) [Compound 35] | – | 2.1 nM
3 | CC1N(C)C(=O)c2c(O)c(=O)c(C(=O)NCc3c(F)cc(F)cc3F)c3n2N1CC3O (stereo not drawn) [Compound 19] | – | 2.7 nM
4 | CCN1C(=O)c2c(O)c(=O)c(C(=O)NCc3ccc(F)cc3)c3n2N(CC3O)C1C (stereo not drawn) [Compound 87] | – | 4.2 nM
5 | CCN1C(=O)c2c(O)c(=O)c(C(=O)NCc3c(F)ccc(F)c3F)c3n2N(CC3O)C1C (single isomer, unassigned) [Compound 82] | 2.2 nM | –
6 | COCCN1CN2CC(O)c3c(C(=O)NCc4c(F)cc(F)cc4F)c(=O)c(O)c(n32)C1=O (stereo not drawn) [Compound 45] | – | 2.5 nM
7 | CCN1CN2CC(O)c3c(C(=O)NCc4ccc(F)cc4)c(=O)c(O)c(n32)C1=O (stereo not drawn) [Compound 62] | 5.2 nM | –
8 | CCN1CN2CC(O)c3c(C(=O)NCc4ccc(F)c(Cl)c4F)c(=O)c(O)c(n32)C1=O (stereo not drawn) [Compound 50] | 4.2 nM | –
9 | CCN1CN2CC(O)c3c(C(=O)NCc4c(F)ccc(F)c4F)c(=O)c(O)c(n32)C1=O (stereo not drawn) [Compound 47] | – | 2.8 nM
10 | CC1N(C)C(=O)c2c(O)c(=O)c(C(=O)NCc3ccc(F)cc3F)c3n2N1CC3O (stereo not drawn) [Compound 15] | – | 2.6 nM
11 | CCN1C(=O)c2c(O)c(=O)c(C(=O)NCc3ccc(C(F)F)cc3)c3n2N(CC3O)C1C (single isomer, unassigned) [Compound 74] | 66 nM | –
12 | CCN1C(=O)c2c(O)c(=O)c(C(=O)NCc3c(F)ccc(F)c3F)c3n2N(CC3O)C1C (stereo not drawn) [Compound 84] | 2.1 nM | –
13 | CCN1C(=O)c2c(O)c(=O)c(C(=O)NCc3c(F)ccc(Cl)c3F)c3n2N(CC3O)C1C (stereo not drawn) [Compound 72] | 2.3 nM | –
14 | CCN1CN2CC(O)c3c(C(=O)NCc4c(F)cc(F)cc4F)c(=O)c(O)c(n32)C1=O (stereo not drawn) [Compound 56] | 2.9 nM | –
15 | CCN1C(=O)c2c(O)c(=O)c(C(=O)NCc3ccc(F)cc3)c3n2N(CC3O)C1C (single isomer, unassigned) [Compound 85] | – | 2.6 nM
16 | COCCN1CN2CC(O)c3c(C(=O)NCc4cccc(Cl)c4F)c(=O)c(O)c(n32)C1=O (stereo not drawn) [Compound 41] | – | 2.8 nM
17 | CN1CN2CC(O)c3c(C(=O)NCc4ccc(F)cc4F)c(=O)c(O)c(n32)C1=O (stereo not drawn) [Compound 3] | – | 3.2 nM
18 | CCN1C(=O)c2c(O)c(=O)c(C(=O)NCc3c(F)ccc(F)c3F)c3n2N(CC3O)C1C (stereo not drawn) [Compound 83] | – | 2.5 nM
19 | CN1C(=O)c2c(O)c(=O)c(C(=O)NCc3ccc(F)cc3F)c3n2N(CC3O)C12CCOC2 (stereo not drawn) [Compound 114] | 1.9 nM | –
20 | CCN1C(=O)c2c(O)c(=O)c(C(=O)NCc3ccc(C(F)(F)F)cc3)c3n2N(CC3O)C1C (stereo not drawn) [Compound 79] | 103 nM | –

Row | SMILES | IC50 | IC50 [1]
21 | CN1C(=O)c2c(O)c(=O)c(C(=O)NCc3c(F)ccc(Cl)c3F)c3n2N(CC3O)C12CCOC2 (stereo not drawn) [Compound 117] | – | 1.8 nM
22 | CC1N(C)C(=O)c2c(O)c(=O)c(C(=O)NCc3c(F)cc(F)cc3F)c3n2N1CC3O (stereo not drawn) [Compound 20] | 1.7 nM | –
23 | CCN1C(=O)c2c(O)c(=O)c(C(=O)NCc3c(F)ccc(Cl)c3F)c3n2N(CC3O)C1C (single isomer, unassigned) [Compound 70] | 1.8 nM | –
24 | CCN1CN2CC(O)c3c(C(=O)NCc4c(F)cc(F)cc4F)c(=O)c(O)c(n32)C1=O (stereo not drawn) [Compound 55] | – | 1.6 nM
25 | CN1CN2CC(O)c3c(C(=O)NCc4c(F)ccc(Cl)c4F)c(=O)c(O)c(n32)C1=O (stereo not drawn) [Compound 8] | 1.9 nM | –
26 | CCN1CN2CC(O)c3c(C(=O)NCc4c(F)ccc(Cl)c4F)c(=O)c(O)c(n32)C1=O (stereo not drawn) [Compound 54] | 4.7 nM | –
27 | CCN1C(=O)c2c(O)c(=O)c(C(=O)NCc3ccc(F)cc3F)c3n2N(CC3O)C1C (single isomer, unassigned) [Compound 89] | – | 1.9 nM
28 | CC1N(C)C(=O)c2c(O)c(=O)c(C(=O)NCc3ccc(F)cc3F)c3n2N1CC3O (stereo not drawn) [Compound 16] | 1.9 nM | –
29 | CCN1CN2CC(O)c3c(C(=O)NCc4ccc(F)cc4F)c(=O)c(O)c(n32)C1=O (stereo not drawn) [Compound 57] | – | 2.4 nM
30 | CN1C(=O)c2c(O)c(=O)c(C(=O)NCc3ccc(F)cc3F)c3n2N(CC3O)C12CCOC2 (single isomer, unassigned) [Compound 111] | – | 2.1 nM
31 | CN1CN2CC(O)c3c(C(=O)NCc4ccc(F)cc4)c(=O)c(O)c(n32)C1=O (stereo not drawn) [Compound 6] | 3 nM | –
32 | CN1CN2CC(O)c3c(C(=O)NCc4ccc(F)cc4F)c(=O)c(O)c(n32)C1=O (stereo not drawn) [Compound 4] | 3.5 nM | –
33 | CN1CN2CC(O)c3c(C(=O)NCc4c(F)ccc(Cl)c4F)c(=O)c(O)c(n32)C1=O (stereo not drawn) [Compound 7] | – | 1.6 nM
34 | CCN1C(=O)c2c(O)c(=O)c(C(=O)NCc3ccc(F)cc3F)c3n2N(CC3O)C1C (single isomer, unassigned) [Compound 90] | 1.9 nM | –
35 | CCN1C(=O)c2c(O)c(=O)c(C(=O)NCc3ccc(C(F)(F)F)cc3)c3n2N(CC3O)C1C (stereo not drawn) [Compound 80] | 219 nM | –
36 | CN1C(=O)c2c(O)c(=O)c(C(=O)NCc3ccc(F)cc3F)c3n2N(CC3O)C12CCOC2 (stereo not drawn) [Compound 113] | – | 1.5 nM
37 | CCN1C(=O)c2c(O)c(=O)c(C(=O)NCc3ccc(F)cc3F)c3n2N(CC3O)C1C (stereo not drawn) [Compound 92] | 1.7 nM | –
38 | CC1N(C)C(=O)c2c(O)c(=O)c(C(=O)NCc3c(F)cc(F)cc3F)c3n2N1CC3O (single isomer, unassigned) [Compound 18] | 1.6 nM | –
39 | CCN1C(=O)c2c(O)c(=O)c(C(=O)NCc3c(F)ccc(F)c3F)c3n2N(CC3O)C1C (single isomer, unassigned) [Compound 81] | – | 2.8 nM
